From ChEMBL document CHEMBL1201862, “PubChem BioAssay data set” (2004)
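Test compounds were applied to cells in 96-well plates for 48 hours at 5 doses. GI50 = concentration required for 50% inhibition of growth.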 Calls of active or inactive are those of the source. No stated cut-off is given here; in the data, active = GI50 up to about 1.1 µM and inactive = higher. Starred links: 1 amine or outer side, 2 acyl side, 3 side chain; linkers in the order of their positions; H or OH if unused. Positions of bridges follow the written chain, without caps; N, C: chain ends. Non-standard residues stand in square brackets, D forms with d. Residues, ends and D or L forms follow the SMILES beside them. Chains are numbered I, II in the order given. Actinocin(1to9) = Cc1c2oc3c(C)ccc(C(=O)[*:2])c3nc-2c(C(=O)[*:1])c(N)c1=O; aThr = C[C@H](O)[C@H](N)C(=O)O; NMeV = CN[C@H](C(=O)O)C(C)C; Sar = CNCC(=O)O

How the values were obtained:
Assay in all cases: NCI-60 cell line screen, 48 h
ACHN = tested on: ACHN
CCRF-CEM = tested on: CCRF-CEM
COLO 205 = tested on: COLO 205
HCT-15 = tested on: HCT-15
HOP-92 = tested on: HOP-92
Hs-578T = tested on: Hs-578T
IGROV-1 = tested on: IGROV-1
K562 = tested on: K562
MDA-N = tested on: MDA-N
MOLT-4 = tested on: MOLT-4
NCI-H23 = tested on: NCI-H23
NCI/ADR-RES = tested on: NCI/ADR-RES
RPMI-8226 = tested on: RPMI-8226
SF-295 = tested on: SF-295
SF-539 = tested on: SF-539
SK-MEL-28 = tested on: SK-MEL-28
SK-MEL-2 = tested on: SK-MEL-2
SK-MEL-5 = tested on: SK-MEL-5
SN12C = tested on: SN12C
SR = tested on: SR

| Structure (SMILES) | GI50 (ACHN) | GI50 (CCRF-CEM) | GI50 (COLO 205) | GI50 (HCT-15) [µM] | GI50 (HOP-92) | GI50 (Hs-578T) | GI50 (IGROV-1) | GI50 (K562) | GI50 (MDA-N) | GI50 (MOLT-4) | GI50 (NCI-H23) | GI50 (NCI/ADR-RES) | GI50 (RPMI-8226) | GI50 (SF-295) | GI50 (SF-539) | GI50 (SK-MEL-28) | GI50 (SK-MEL-2) | GI50 (SK-MEL-5) | GI50 (SN12C) | GI50 (SR) |
| --- | --- | --- | --- | --- | --- | --- | --- | --- | --- | --- | --- | --- | --- | --- | --- | --- | --- | --- | --- | --- |
| COc1ccc(-c2cc(-c3ccccc3)n(C3OCC(OC(C)=O)C(OC(C)=O)C3OC(C)=O)c(=S)c2C#N)cc1 (stereo not given) | 37.4 µM (inactive) | > 100 µM (inactive) | > 100 µM (inactive) | > 100 | 16 µM (inactive) | 15.3 µM (inactive) | > 100 µM (inactive) | > 100 µM (inactive) | 54.5 µM (inactive) | > 100 µM (inactive) | > 100 µM (inactive) | > 100 µM (inactive) | > 100 µM (inactive) | 56.4 µM (inactive) | > 100 µM (inactive) | > 100 µM (inactive) | 25 µM (inactive) | > 100 µM (inactive) | > 100 µM (inactive) | > 100 µM (inactive) |
| CC(=O)OC(CC(C)C)P1(=O)N(CC(C)(C)C)[C@@H]2CCCC[C@H]2N1CC(C)(C)C (stereo not given in full) | 7.28 µM (inactive) | 13.2 µM (inactive) | 6 µM (inactive) | 9.82 | 2.58 µM (inactive) | 9.75 µM (inactive) | 11.7 µM (inactive) | 8.47 µM (inactive) | 8.26 µM (inactive) | 9.62 µM (inactive) | 10.2 µM (inactive) | 8.3 µM (inactive) | 4.01 µM (inactive) | 7.5 µM (inactive) | 10.5 µM (inactive) | 14.2 µM (inactive) | 7.6 µM (inactive) | 9.4 µM (inactive) | 10.7 µM (inactive) | 10.2 µM (inactive) |
| COc1ccc(-c2nc(N)n(C)c2SSc2c(-c3ccc(OC)cc3)nc(N)n2C)cc1 | 3.94 µM (inactive) | 2.76 µM (inactive) | 2.19 µM (inactive) | 3.04 | 2.28 µM (inactive) | 9.16 µM (inactive) | 14.3 µM (inactive) | 2.83 µM (inactive) | 2.63 µM (inactive) | 2.13 µM (inactive) | 5.14 µM (inactive) | 14.2 µM (inactive) | 2.69 µM (inactive) | 11.6 µM (inactive) | 4.69 µM (inactive) | 3.61 µM (inactive) | 15.6 µM (inactive) | 2.08 µM (inactive) | 11.3 µM (inactive) | 2.23 µM (inactive) |
| CCOC(=O)NC(Nc1ccc(OC(F)(F)F)cc1)(C(F)(F)F)C(F)(F)F | > 100 µM (inactive) | > 100 µM (inactive) | > 100 µM (inactive) | > 100 | > 100 µM (inactive) | > 100 µM (inactive) | > 100 µM (inactive) | > 100 µM (inactive) | > 100 µM (inactive) | > 100 µM (inactive) | > 100 µM (inactive) | > 100 µM (inactive) | > 100 µM (inactive) | > 100 µM (inactive) | > 100 µM (inactive) | > 100 µM (inactive) | > 100 µM (inactive) | > 100 µM (inactive) | > 100 µM (inactive) | > 100 µM (inactive) |
| Cc1c2oc3c(C)ccc(C(=O)N[C@@H]4C(=O)N[C@H](C(C)C)C(=O)N5CCC[C@H]5C(=O)N(C)CC(=O)N(C)[C@@H](C(C)C)C(=O)O[C@H]4C)c3nc-2c(C(=O)N[C@@H]2C(=O)N[C@H](C(C)C)C(=O)N3CCC[C@H]3C(=O)N(C)CC(=O)N(C)[C@@H](C(C)C)C(=O)O[C@H]2C)c(N)c1=O (I: [aThr][dV]P[Sar][NMeV] / II: [aThr][dV]P[Sar][NMeV]; ester I:1-I:C, II:1-II:C; linker I:N-II:N via Actinocin(1to9)) | 0.00371 µM (active) | 0.000863 µM (active) | 0.00106 µM (active) | 0.02 | 0.00314 µM (active) | 0.00187 µM (active) | 0.00217 µM (active) | 0.000492 µM (active) | 0.000631 µM (active) | 0.00048 µM (active) | 0.00219 µM (active) | 0.098 µM (active) | 0.00061 µM (active) | 0.00203 µM (active) | 0.000899 µM (active) | 0.00139 µM (active) | 0.00106 µM (active) | 0.00115 µM (active) | 0.00185 µM (active) | 0.00031 µM (active) |
